Measurements published in patent EP0258134A1, “Therapeutical compositions containing benzhydryl thiomethane derivatives” (LABORATOIRE L. LAFON, priority 1986, dated 1988).

Assays:
[1] = Solubility in water; assay type: physicochemical; conditions: result in words
Text: Le composé est une poudre blanche, insoluble dans l'éther de pétrole, soluble dans l'éther, l'acé-tate d'éthyle et les alcools. Sa solubilité dans l'eau est inférieure à 0,1%.

[2] = system: souris; experiment: Pretoxicity, i.p., 3 mice per dose; assay type: in vivo
Experimental: (§1) Le composé CRL 41 334, en suspension dans une solution de gomme arabique, a été administré par voie intrapéritonéale sous un volume de 20 ml/kg chez la souris (mâle, NMRI, C.E.R. Janvier) et de 5 ml/kg chez le rat (mâle, CD₁; SPRAGUE DAWLEY, Charles River).
I - PRETOXICITE ( 3 souris par dose)
(§2) Le CRL 41 055, en suspension dans une solution de gomme arabique, a été administré par voie intrapéritonéale sous un volume de 20 ml/kg chez la souris (mâle, NMRI, Evic Ceba).
Prétoxicite (3 souris par dose)
(§3) Le CRL 40 956, en suspension dans une solution de gomme arabique a été administré par voie intrapéritonéale sous un volume de 20 ml/kg chez la souris (mâle, NMRI, Evic Céba) et de 5 ml/kg chez le rat (mâle, CD₁, Sprague Dawley, Charles River).
Prétoxicité ( 3 souris par dose)

[3] = system: souris; experiment: Global behaviour and reactivities, mouse, i.p.; assay type: in vivo
Experimental: as §1
(§4) Des lots de 3 animaux sont observés avant, puis 15 mn, 30 mn, 1h, 2h, 3h et 24 heures après l'administration du composé CRL 41 334.
as §2, §3
(§5) Des lots de 3 animaux sont observés avant, puis 15 mn, 30 mn, 1 h, 2 h, 3 h et 24 heures après l'administration de CRL 40 956.

[4] = system: rat; experiment: Global behaviour and reactivities, rat, i.p.; assay type: in vivo; conditions: rat
Experimental: as §1, §4, §3, §5

[5] = system: rat; experiment: Interaction with apomorphine, rat; assay type: in vivo; conditions: 64 et 256 mg/kg, apomorphine 0,5 mg/kg s.c.
Experimental: Le composé CRL 41 334 est administré à des lots de 6 rats une demi-heure avant l'injection sous-cutanée de 0,5 mg/kg d'apomorphine.
Le CRL 40 956 est administré à des lots de 6 rats une demi-heure avant l'injection sous cutanée de 0,5 mg/kg d'apomorphine.

[6] = system: souris; experiment: Spontaneous motility (actimeter); assay type: in vivo; conditions: souris, half an hour before the actimeter
Experimental: Après avoir reçu le composé CRL 41 334, les souris sont placées en actimètre où leur motilité est enregistrée pendant 30 minutes.
Une demi-heure après avoir reçu le CRL 41 055, les souris (6 par dose, 12 témoins) sont placées en actimètre où leur motilité est enregistrée pendant 30 minutes.
Une demi-heure après avoir reçu le CRL 40 956, les souris (6 par dose, 12 témoins) sont placées en actimètre ou leur motilité est enregistrée pendant 30 minutes.

[7] = system: souris; experiment: Intergroup aggressiveness; assay type: in vivo; conditions: 128 mg/kg
Experimental: Après avoir séjourné pendant 3 semaines dans chacune des moitiés d'une cage séparées par une cloison opaque, des groupes de 3 souris reçoivent le composé CRL 41 334. Une demi-heure plus tard, les deux groupes d'une même cage sont réunis par retrait de la cloison et on note le nombre de combats qui surviennent en 10 minutes. Le test est pratiqué pour moitié sur les souris habituelles (NMRI, C.E.R. Janvier) et pour moitié sur des souris NMRI (Iffa Credo).
Après avoir séjourné pendant 3 semaines dans chacune des moitiés d'une cage séparée par une cloison opaque, des groupes de 3 souris reçoivent le CRL 40 956. Une demi-heure plus tard, les deux groupes d'une même cage sont réunis par retrait de la cloison et on note le nombre de combats qui surviennent en 10 minutes.

[8] = system: souris; experiment: Asphyxic anoxia (gallamine triethiodide); assay type: in vivo; conditions: 512 mg/kg, gallamine 32 mg/kg i.p.
Experimental: Des lots de 20 souris reçoivent le composé CRL 41 334 une demi-heure avant l'administration intrapéritonéale de 32 mg/kg de triiodoéthylate de gallamine.
Des lots de 10 souris reçoivent le CRL 40 956 une demi-heure avant l'administration intrapé-ritonéale de 32 mg/kg de triodoéthylate de Gallamine.

[9] = system: souris; experiment: Interaction with barbital; assay type: in vivo; conditions: souris, 512 mg/kg, barbital 200 mg/kg i.p.
Experimental: Une demi-heure après l'administration du composé CRL 41 334, des lots de 20 souris reçoivent une injection intrapéritonéale de barbital ([…]).
Une demi-heure après l'administration du CRL 40 956 des lots de 10 souris reçoivent une injection intrapéritonéale de 200 mg/kg de barbital.

[10] = system: souris; experiment: Behavioural despair (forced immersion); assay type: in vivo; conditions: souris, 512 mg/kg
Text: Une demi-heure après avoir reçu le composé CRL 41 334, des lots de 6 souris (mâles, CD₁, Charles River) sont placés dans un bécher rempli d'eau sur une hauteur de 6 cm. On note la durée totale d'immobilité entre la 2ème et la 6ème minutes suivant l'immersion.
Une demi-heure après avoir reçu le CRL 40 956, des lots de 10 souris (mâles CD₁ Charles River) sont plongées dans une enceinte réduite remplie d'eau sur une hauteur de 6 cm. On note la durée totale d'immobilité entre la 2ème et la 6ème minute suivant l'immersion.

[11] = system: souris; experiment: Motility reduced by habituation to the enclosure; assay type: in vivo; conditions: 32 et 128 mg/kg
Experimental: Après 18 heures de séjour dans les actimè-tres, les souris (6 par dose, 12 témoins) reçoivent le composé CRL 41 334. Elles sont aussitôt replacées dans leurs enceintes respectives et, une demi-heure plus tard, on enregistre leur motilité pendant 30 minutes.
Après 18 heures de séjour dans les actimètres, les souris (6 par dose, 12 émoins) reçoivent le CRL 41 055. Elles sontaussitôt replacées dans leurs enceintes respectives et, une demi-heure plus tard, on enregistre leur motilité pendant 30 minutes.

[12] = system: homme; experiment: Therapeutic use in humans; assay type: in vivo; conditions: trois gélules de 50 mg par jour
[13] = system: souris femelles de souche OF₁; experiment: Delayed hypersensitivity reaction to sheep red blood cells; assay type: in vivo; conditions: for Ind. Activité / % d'augmentation du coussinet (mm) m: voie orale; for % d'augmentation du coussinet (mm) m: trois jours avant immunisation
Text: Selon la méthode de Miller, Lagrange et Mackaness ("Immunopotentiation with BCG II modulation of the response to sheep red blood cells", Journal of the National Cancer Institute 1973, 51, 5, 1669 - 1676).
Le composé à tester est administré par voie orale a des souris femelles de souche OF₁ trois jours avant immunisation.
Les résultats sont exprimés en pourcentage d'augmentation du coussinet plantaire.

[14] = system: rat; experiment: Search for stereotyped movements, rat; assay type: in vivo; conditions: in vivo, 2 mg/kg
Text: Des lots de 6 rats reçoivent une injection du composé CRL 41 334 ou d'amphétamine, puis sont immédiatement placés dans des boîtes de petites dimensions (20 x 10 x 10 cm) où leur comportement stéréotypeé est coté de 0 à 3 jusqu'à extinction de l'effet.

Q: For `ON=CCSC(c1ccccc1)c1ccccc1` [CRL 40 956, 2-(benzhydrylthio)acétaldoxime], which “solubilité dans l'eau” value [1] is on record?
A: Insoluble dans l'eau

Q: And the symptômes ([2]; 256 mg/kg i.p.)?
A: mêmes symptômes

Q: And the mortalité ([2]; 1024 et 512 mg/kg i.p.)?
A: pas de mortalité

Q: What about the symptômes ([2]; 1024 et 512 mg/kg i.p.) of the same molecule?
A: crampes abdominales, dyspnée

Q: What about the “comportement et réactivités” value ([3]; souris, 512 mg/kg i.p.) of the same molecule?
A: sédation pendant 2 à 3 heures

Q: What about the “comportement et réactivités” value ([3]; souris, 128, 32 et 8 mg/kg i.p.) of the same molecule?
A: pas de symptômes nets

Q: What about the “comportement et réactivités” value ([4]; 64 mg/kg i.p.) of the same molecule?
A: sédation pendant 3 heures avec diminution

Q: What about the “comportement et réactivités” value ([4]; 256 mg/kg i.p.) of the same molecule?
A: sédation pendant 3 heures

Q: What about the “stéréotypies induites par l'apomorphine” value [5] of the same molecule?
A: diminue très modérément l'intensité des stéréotypies

Q: What about the “activité motrice spontanée” value ([6]; 512 mg/kg) of the same molecule?
A: diminue fortement l'activité motrice spontanée

Q: What about the nombre de combats [7] of the same molecule?
A: diminue le nombre de combats

Q: What about the “apparition des convulsions et de la mort” value [8] of the same molecule?
A: retarde modérément l'apparition des convulsions et de la mort

Q: What about the “durée du sommeil barbiturique” value [9] of the same molecule?
A: diminue la durée du sommeil barbiturique

Q: And the “durée d'immobilité "de désespoir"” value [10]?
A: diminue la durée d'immobilité

Q: For `NC(=O)CSC(c1ccccc1)c1ccccc1` [CRL 41 055, 2-(benzhydrylthio)acétamide], which “solubilité dans l'eau” value [1] is on record?
A: insoluble dans l'eau

Q: What about the symptômes ([2]; 64 mg/kg i.p., after 45 minutes, lasting more than 2 hours) of the same molecule?
A: excitation, stéréotypies (reniflements, redressements)

Q: And the symptômes ([2]; 512 mg/kg i.p.)?
A: sédation, fréquence respiratoire diminuée, contractions abdominales

Q: And the convulsions ([2]; 512 mg/kg i.p., 18 heures après l'injection)?
A: convulsions intermittentes présentes chez toutes les souris

Q: What about the mortalité ([2]; 512 mg/kg i.p., après 48 heures) of the same molecule?
A: 1/3

Q: And the symptômes ([2]; 1024 mg/kg i.p.)?
A: mêmes symptômes

Q: And the mortalité ([2]; 128 et 256 mg/kg i.p.)?
A: Pas de mortalité

Q: And the symptômes ([2]; 128 et 256 mg/kg i.p.)?
A: pendant 45 minutes sédation, fréquence respiratoire diminuée

Q: And the “comportement et réactivités” value ([3]; souris, 2 mg/kg i.p.)?
A: pas de modifications nettes

Q: And the “comportement et réactivités” value ([3]; souris, 128 mg/kg i.p.)?
A: sédation pendant 30 minutes faisant place à une excitation tardive

Q: And the “comportement et réactivités” value ([3]; souris, 8 et 32 mg/kg i.p.)?
A: excitation pendant 2 heures

Q: What about the “motilité spontanée” value ([6]; 32 et 128 mg/kg) of the same molecule?
A: augmentation de motilité spontanée

Q: And the “activité motrice chez la souris habituée à son enceinte” value [11]?
A: reprise nette de l'activité motrice

Q: What about the “thérapeutique humaine comme antidépresseur” value [12] of the same molecule?
A: s'est avéré utile

Q: With `O=C(CSC(c1ccc(F)cc1)c1ccc(F)cc1)NO` [CRL 41 335, acide 2-(4,4ʹ-difluorobenzhydrylthio)acétohydroxamique] as the molecule, how does the “solubilité dans l'eau” value [1] read?
A: insoluble dans l'eau

Q: And the “Ind. Activité” value ([13]; Exp 1, 0,1 mg/kg)?
A: 1,29

Q: And the “% d'augmentation du coussinet (mm) m” value ([13]; Exp 1, 0,1 mg/kg)?
A: 11,5%

Q: What about the “Ind. Activité” value ([13]; Exp 1, 1 mg/kg) of the same molecule?
A: 0,94

Q: What about the “% d'augmentation du coussinet (mm) m” value ([13]; Exp 1, 1 mg/kg) of the same molecule?
A: 8,4%

Q: What about the “Ind. Activité” value ([13]; Exp 1, 10 mg/kg) of the same molecule?
A: 1,00

Q: And the “% d'augmentation du coussinet (mm) m” value ([13]; Exp 1, 10 mg/kg)?
A: 8,9%

Q: And the “Ind. Activité” value ([13]; Exp 1, 100 mg/kg)?
A: 0,77

Q: What about the “% d'augmentation du coussinet (mm) m” value ([13]; Exp 1, 100 mg/kg) of the same molecule?
A: 6,9%

Q: And the action immunostimulante ([13]; overall statement in the text)?
A: dépourvu d'une telle action immostimulante

Q: With `CC(N)Cc1ccccc1` (stereo not drawn) [amphétamine, reference compound] as the molecule, how does the “durée des stéréotypies” value [14] read?
A: 270 min
